Where two headings read alike, the source gives them in different places.
Experiments:
[1] = biological target: T1, human ETA receptors (Homo sapiens, UniProt P25101); assay: Binding Test #1: inhibition of 125I-endothelin-1 binding to ETA receptors (TE 671 cell membranes); details: incubation at 24° C.; generally the average of 2 to 3 experiments
T1 construct: host or cells: TE 671 cells (membranes)
T1 sequence (P25101 21-427): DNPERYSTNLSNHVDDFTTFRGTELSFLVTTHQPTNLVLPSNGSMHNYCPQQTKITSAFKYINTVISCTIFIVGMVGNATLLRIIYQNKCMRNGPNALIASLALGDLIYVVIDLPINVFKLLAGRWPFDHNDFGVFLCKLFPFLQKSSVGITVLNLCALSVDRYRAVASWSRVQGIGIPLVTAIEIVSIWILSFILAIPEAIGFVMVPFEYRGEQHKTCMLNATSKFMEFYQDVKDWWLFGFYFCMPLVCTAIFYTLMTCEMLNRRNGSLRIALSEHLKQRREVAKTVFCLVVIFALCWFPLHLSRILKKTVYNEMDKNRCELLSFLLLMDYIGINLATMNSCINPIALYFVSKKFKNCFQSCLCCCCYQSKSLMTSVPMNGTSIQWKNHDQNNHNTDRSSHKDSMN
From the text: (§1) Compounds that are potential endothelin antagonists are identified by testing their ability to compete with ^125I-labeled ET-1 for binding to human ETA receptors or ETB receptors present on isolated cell membranes. The effectiveness of the test compound as an antagonist or agonist of the biological tissue response of endothelin can also be assessed by measuring the effect on endothelin induced contraction of isolated rat thoracic aortic rings. The ability of the compounds to act as antagonists or agonists for ETB receptors can be assess by testing the ability of the compounds are to inhibit endothelin-1 induced prostacyclin release from cultured bovine aortic endothelial cells.
TE 671 cells (ATCC Accession No. HTB 139) express ETA receptors. These cells were grown to confluence in T-175 flasks. Cells from multiple flasks were collected by scraping, pooled and centrifuged for 10 min at 190×g. The cells were resuspended in phosphate buffered saline (PBS) containing 10 mM EDTA using a Tenbroeck homogenizer. The suspension was centrifuged at 4° C. at 57,800×g for 15 min, the pellet was resuspended in 5 ml of buffer A (5 mM HEPES buffer, pH 7.4 containing aprotinin (100 KIU/ml)) and then frozen and thawed once. 5 ml of Buffer B (5 mM HEPES Buffer, pH 7.4 containing 10 mM MnCl2 and 0.001 % deoxyribonuclease Type 1) was added, the suspension mixed by inversion and then incubated at 37° C. for 30 minutes. The mixture was centrifuged at 57,800×g as described above, the pellet washed twice with buffer A and then resuspended in buffer C (30 mM HEPES buffer, pH 7.4 containing aprotinin (100 KIU/ml) to give a final protein concentration of 2 mg/ml and stored at −70° C. until use.
The membrane suspension was diluted with binding buffer (30 mM HEPES buffer, pH 7.4 containing 150 mM NaCl, 5 mM MgCl2, 0.5% Bacitracin) to a concentration of 8 μg/50, μl. ^125I-endothelin-1 (3,000 cpm, […]) was added to 50 μl of either: (A) endothelin-1 (for non specific binding) to give a final concentration 80 nM); (B) binding buffer (for total binding); or (C) a test compound (final concentration 1 nM to 100 μM). The membrane suspension (50 μl), containing up to 8 μg of membrane protein, was added to each of (A), (B), or (C). Mixtures were shaken, and incubated at 4° C. for 16-18 hours, and then centrifuged at 4° C. for 25 min at 2,500×g. Alternatively, the incubation was conducted at 24° C. When incubated at 24° C., the IC50 concentrations are 2- to 10-fold higher than when the incubation is conducted at 4° C. This, must be kept in mind when comparing IC50 concentrations among compounds provided herein.
The supernatant, containing unbound radioactivity, was decanted and the pellet counted on a Genesys multiwell gamma counter. The degree of inhibition of binding (D) was calculated according to the following equation: [formula]
Each test was generally performed in triplicate.

[2] = biological target: T2, human ETB receptor (Homo sapiens, UniProt P24530); assay: Binding Test #2: inhibition of 125I-endothelin-1 binding to ETB receptors (transfected COS7 cell membranes); details: incubation at 24° C.; generally the average of 2 to 3 experiments
T2 construct: expressed in transfected cells; host or cells: COS7 cells
T2 sequence (P24530 27-442): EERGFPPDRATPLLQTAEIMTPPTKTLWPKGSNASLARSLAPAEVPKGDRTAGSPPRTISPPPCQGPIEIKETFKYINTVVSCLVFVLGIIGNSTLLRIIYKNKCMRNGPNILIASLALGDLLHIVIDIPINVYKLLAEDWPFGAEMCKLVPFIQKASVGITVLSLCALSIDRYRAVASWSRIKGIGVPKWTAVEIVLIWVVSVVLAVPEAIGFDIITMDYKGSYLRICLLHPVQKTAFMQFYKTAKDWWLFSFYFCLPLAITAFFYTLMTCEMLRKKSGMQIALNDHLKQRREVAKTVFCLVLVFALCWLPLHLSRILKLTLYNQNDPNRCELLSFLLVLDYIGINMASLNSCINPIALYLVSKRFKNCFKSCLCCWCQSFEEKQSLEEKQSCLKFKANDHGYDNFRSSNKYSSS
From the text: as §1
COS7 cells were transfected with DNA encoding the ETB receptor, The resulting cells, which express the human ETB receptor, were grown to confluence in T-150 flasks. Membrane was prepared as described above. The binding assay was performed as described above using the membrane preparation diluted with binding buffer to a concentration of 1 μg/50 μl.
Briefly, the COS7 cells, described above, that had been transfected with DNA encoding the ETB receptor and express the human ETB receptor on their surfaces were grown to confluence in T-175 flasks. Cells from multiple flasks were collected by scraping, pooled and centrifuged for 10 min at 190×g. The cells were resuspended in phosphate buffered saline (PBS) containing 10 mM EDTA using a Tenbroeck homogenizer. The suspension was centrifuged at 4° C. 57,800×g for 15 min, the pellet was resuspended in 5 ml of buffer A (5mM HEPES buffer, pH 7.4 containing aprotinin (100 KIU/ml)) and then frozen and thawed once. Five ml of Buffer B (5 mM HEPES Buffer, pH 7.4 containing 10 mM MnCl2 and 0.001% deoxyribonuclease Type 1) was added, the suspension mixed by inversion and then incubated at 37° C. for 30 minutes. The mixture was centrifuged at 57,800×g as described above, the pellet washed twice with buffer A and then resuspended in buffer C (30 mM HEPES buffer, pH 7.4 containing aprotinin (100 KIU/ml) to give a final protein concentration of 2 mg/ml.
The binding assay was performed as described above using the membrane preparation diluted to give 1 μg/50, μl of binding buffer.

[3] = test system: ETA receptor; details: cited from earlier work; for IC50: read-out: IC50, inhibition of 125I-labelled endothelin-1 binding
[4] = test system: isolated vascular strips; details: read-out: EC50, contractile agent; cited from earlier work
[5] = test system: ETB receptors; details: concentrations up to 100 μM; cited from earlier work

Compound	IC50 [1] [nM]	IC50 [2] [nM]	also measured
Cc1cc2c(cc1Cc1sc3ncccc3c1S(=O)(=O)Nc1noc(C)c1Cl)OCO2 [N-(4-chloro-5-methyl-3-isoxazolyl)-2-[2-methyl-4,5-(methylenedioxy)-benzyl]thieno[2,3-b]pyridine-3-sulfonamide]	1	500	–
Cc1cc2c(cc1Cc1sc3ncccc3c1S(=O)(=O)Nc1onc(C)c1Cl)OCO2 [N-(4-chloro-3-methyl-5-isoxazolyl)-2-[2-methyl-4,5-(methylene-dioxy)benzyl]thieno [2,3-b]pyridine-3-sulfonamide]	1.5	1600	–
Cc1noc(NS(=O)(=O)c2c(C(=O)c3ccc4c(c3)OCO4)sc3ncccc23)c1Cl [N-(4-chloro-3-methyl-5-isoxazolyl)-2-[3,4-(methylenedioxy)benzoyl]-thieno [2,3-b]pyridine-3-sulfonamide]	960	31000	–
Cc1noc(NS(=O)(=O)c2c(Cc3ccc4c(c3)OCO4)sc3ncccc23)c1Cl [N-(4-chloro-3-methyl-5-isoxazolyl)-2-[3,4-(methylenedioxy)benzyl]thieno [2,3-b]pyridine-3-sulfonamide]	5.6	2800	–
CCc1sc2ncccc2c1S(=O)(=O)Nc1onc(C)c1Cl [N-(4-chloro-3-methyl-5-isoxazolyl)-2-ethylthieno[2,3-b]pyridine-3-sulfonamide]	68	39000	–
endothelin-1: potent twenty-one amino acid peptide vasoconstrictor	–	–	potency of inhibition of 125I-labelled endothelin-1 binding relative to endothelin-3 ([3]; cardiovascular tissues): forty to seven hundred times more potently than endothelin-3; EC50 [4]: 0.4 nM
Cc1noc(NS(=O)(=O)c2c(Cc3cccc4ccccc34)sc3ncccc23)c1Cl [N-(4-chloro-3-methyl-5-isoxazolyl)-2-(1-naphthylmethyl)thieno[2,3-b]pyridine-3-sulfonamide]	34	560	–
Cc1ccc(Cc2sc3ncccc3c2S(=O)(=O)Nc2onc(C)c2Cl)c(C)c1 [N-(4-chloro-3-methyl-5-isoxazolyl)-2-(2,4-dimethylbenzyl)thieno[2,3-b]pyridine-3-sulfonamide]	4.5	1500	–
CCc1sc2ncccc2c1S(=O)(=O)Nc1noc(C)c1Cl [N-(4-chloro-5-methyl-3-isoxazolyl)-2-ethylthieno [2,3-b]pyridine-3-sulfonamide]	45	30000	–
Cc1noc(NS(=O)(=O)c2c(Cc3cc4c(cc3CCO)OCO4)sc3ncccc23)c1Cl [N-(4-chloro-3-methyl-5-isoxazolyl)-2-[2-(2-hydroxyethyl)-4,5-(methylenedioxy)benzyl]thieno[2,3-b]pyridine-3-sulfonamide]	1.5	3600	–
Cc1noc(NS(=O)(=O)c2csc3ncccc23)c1Cl [N-(4-chloro-3-methyl-5-isoxazolyl)thieno[2,3-b]pyridine-3-sulfonamide]	1800	> 100000	–
COc1cccc(OC)c1Cc1sc2ncccc2c1S(=O)(=O)Nc1onc(C)c1Cl [N-(4-chloro-3-methyl-5-isoxazolyl)-2-(2,6-dimethoxybenzyl)thieno[2,3-b]pyridine-3-sulfonamide]	650	10100	–
Cc1noc(NS(=O)(=O)c2c(C(=O)CCc3ccc4c(c3)OCO4)sc3ncccc23)c1Cl [N-(4-chloro-3-methyl-5-isoxazolyl)-2-[3-(3,4-methylenedioxyphenyl)-proponyl]thieno [2,3-b]pyridine-3-sulfonamide]	45	6600	–
cyclo(D-Glu-L-Ala-allo-D-llc-L-Leu-D-Trp) [BE-18257B]	–	–	IC50 ([3]; aortic smooth muscle): 1400 nM; IC50 ([3]; cultured aortic smooth muscle cells): 500 nM; IC50 ([3]; ventricle membranes): 800 nM; inhibition of binding to receptors in tissues in which ETB receptors predominate [5]: fails to inhibit binding

Source: US6545014B2, “Method of treating glaucoma” (Texas Biotechnology Corporation, priority 1991, dated 2003)
